How the values were obtained:
[1] = test system: primary prostate epithelial cells; test: Flow cytometry cell cycle analysis, primary cells; type: cell-based, human; settings: primary prostate epithelial cells, 48 h post-treatment
Protocol: (§1) Following drug treatment, floating cells in the media were pooled with adherent cells, which were collected by trypsinisation. Following centrifugation cells were resuspended in 0.5 ml PBS. Cells were fixed in 2 ml ice cold 70% ethanol, which was added in a dropwise fashion while vortexing. Cells were incubated on ice for 30 min then washed in 5 ml PBS and resuspended in 0.4 ml PBS. Following storage at 4°C overnight, 50 µl of RNAse (1 mg/ml) and 50 µl of propidium iodide (1 mg/ml) were added to the cells. Following incubation at 37°C for 30 min the cells were analysed for 2N and 4N DNA content on a flow cytometer (Cyan ADP Analyser, Beckman Coulter).

[2] = test system: cleaved caspase-3; test: Western blotting for apoptosis, cell lines; type: cell-based, human; settings: BPH-1, PNT2-C2 and P4E6 cells
Protocol: (§2) Following drug treatment, cell lysates were harvested using Cytobuster Protein Extraction Reagent (71009, EMD Millipore, Darmstadt, Germany) with protease inhibitors (cOmplete, EDTA-free Protease Inhibitor Cocktail Tablets, Roche Applied Science, UK). 20 µg of protein extract were loaded on 12% SDS-PAGE gels and wet-transferred to a PVDF membrane. Antibodies used include: monoclonal anti-β-actin 1∶5000 (A5316, Sigma-Aldrich), anti-LC3B 1∶3000 (Ab51520, abcam), cleaved caspase-3 (Asp175) 1∶1000 (9661S, Cell Signaling Technology) and secondary antibodies were Rabbit anti-mouse-HRP 1∶10000 (P0260, Dako) and anti-rabbit IgG HRP-linked 1∶5000 (Cell Signaling Technology Inc. 7074S). Kaleidoscope protein marker was run on each gel (161-0324, Bio-Rad).

[3] = test system: LC3-II; test: Western blotting for autophagy, cell lines; type: cell-based, human; settings: BPH-1, PNT2-C2 and P4E6 cells
Protocol: as §2

[4] = test system: LC3-II; test: Western blotting and immunofluorescence for autophagy, primary cells; type: cell-based, human; settings: all primary cells
Protocol: γH2AX staining: Cells were seeded onto 8-well collagen I-coated chamber slides. […] After blocking of non-specific binding with 2% BSA in PBS with 1% goat serum for 1 hour at RT, primary antibody (anti-phospho-histone H2A.X (Ser139), clone JBW301, Millipore, Cat no. 05–636) at 1∶1000 dilution was added in 3% BSA in PBS at 4°C overnight followed by three washes in 0.5% BSA in PBS with 0.175% Tween 20. Following incubation with secondary antibody (Goat anti-mouse Alexa Fluor 568, Invitrogen, Cat no. A-11004) at 1∶1000 dilution for 45 min in 3% BSA in PBS and three more washes in the same washing buffer, the slides were mounted using Vectashield with DAPI (Vector Laboratories, Cat no. H-1200). LC3-B staining: Cells were treated as above then fixed with 4% paraformaldehyde, followed by an incubation in 0.3% Triton X-100. After blocking with 10% normal goat serum, cells were incubated in anti-LC3B 1∶200 (Ab51520, abcam) diluted in 0.1% Triton X-100 in PBS. Secondary antibody was Alexa Fluor 568 goat anti-rabbit IgG 1∶1000 (Invitrogen A11011).

[5] = test system: PNT2-C2, BPH-1, P4E6, PC-3 and LNCaP; test: Flow cytometry cell cycle analysis, cell lines; type: cell-based, human; settings: PNT2-C2, PC3 and LNCaP cell lines, 48 h post-treatment
Protocol: as §1

[6] = test system: stem cells (SCs), transit-amplifying cells (TAs) and committed basal cells (CBs); test: ATP viability assay on fractionated primary cells; type: cell-based; settings: 25 µM, ATP assay, not statistically significant
Protocol: Epithelial cells from human tumour or BPH materials were cultured for several weeks and the cells treated at very low passages. The cultured basal cell population were trypsinized, resuspended in SCM and then plated on BSA-blocked collagen I-coated plates. […] The cells that attached to substratum were trypsinised, resuspended in MACs buffer and incubated with CD133-microbeads (Cat no. 130-050-801, Miltenyi Biotec Inc., Auburn, CA, USA). MACs MS columns (Cat no. 130-042-201, Miltenyi Biotec Inc., Auburn, CA, USA) were used to select the CD133^+ and CD133^− cells. Finally, the three cell populations were obtained: stem cells (SCs) - α2β1integrin^hi/CD133^+, transit-amplifying cells (TAs) - α2β1integrin^hi/CD133^− and committed basal cells (CBs) - α2β1integrin^lo.
This assay was employed for the bioluminescent determination of the adenosine 5′-triphosphate (ATP) released from fractionated living cells (cancer stem cells, transit amplifying cells and committed basal cells). As ATP is rapidly degraded in dead cells, high intracellular levels provide a selective assay for living cells. The ATP-bioluminescent somatic cell assay kit (FLASC, Sigma-Aldrich, Saint Louis, MO, USA) was used with protocol modifications. Briefly, 50–500 cells per well were seeded in a collagen-coated 96 well plate in triplicate. After treating cells for 72 h, 150 µL of medium was removed from each well. 50 µL of cell extraction reagent was added into each original well. Following 20 min incubation at RT, 50 µL of cell extract was transferred to a white 96-well plate. Finally, 50 µL of ATP assay mix solution was added into the wells and luminescence was read using a plate reader (PolarStar Optima, BMG Labtech, UK). Percent viability was calculated using the formula (% Viability = [(Sample RLU/Control RLU)]x100 where RLU refers to relative light units.

[7] = test system: breast cancer cells; design: method as in PMID 21885165; settings: in vitro and in vivo; cited from earlier work

N.N.[Cl][Pt][Cl] [Cisplatin, reference compound]
cell cycle effect [1]: S phase arrest | cleaved caspase-3 (apoptosis) [2]: clear induction of cleaved caspase-3 | LC3-II expression (autophagy) [3]: did not significantly change levels of LC3-I and LC3-II | LC3-II (autophagy) [4]: no significant change in LC3-I or LC3-II levels | cell cycle effect [5]: S phase arrest

COc1cc([C@@H]2c3cc4c(cc3[C@@H](O[C@@H]3O[C@@H]5CO[C@@H](C)O[C@H]5[C@H](O)[C@H]3O)[C@H]3COC(=O)[C@H]23)OCO4)cc(OC)c1O [Etoposide, reference compound]
cell cycle effect [1]: S phase arrest | cleaved caspase-3 (apoptosis) [2]: clear induction of cleaved caspase-3 | LC3-II expression (autophagy) [3]: did not significantly change levels of LC3-I and LC3-II | cell cycle effect [5]: S phase arrest | viability of SCs versus TA and CB cells after treatment [6]: SCs appeared to have increased viability compared to TA and CB cells

O.O.O.O.O=C1[N-]S(=O)(=O)c2ccccc21.O=C1c2ccccc2S(=O)(=O)[N]1[Pd+].c1ccc(-c2cccc(-c3ccccn3)n2)nc1 [[Pd(sac)(terpy)](sac)·4 H2O]
anti-growth activity [7]: powerful anti-growth activity

From publication PMC3651166, “Differential Cytotoxic Activity of a Novel Palladium-Based Compound on Prostate Cell Lines, Primary Prostate Epithelial Cells and Prostate Stem Cells” (PLoS ONE, 2013)
